This is an account of results in PMC4472559 (Journal of the American Chemical Society, 2015).

Usually Kd stands for the free concentration of one partner at which half of the binding sites on the other are occupied at equilibrium, for simple one-to-one binding. A higher Kd goes with a looser complex.

The test concerns the target transthyretin (TTR^WT) (Homo sapiens, UniProt P02766). Nature of the test: isothermal titration calorimetry. Format: binding. (In ITC the heat of successive injections is recorded.)

In turn, `O=S(=O)(F)Oc1ccc(-c2nnc(-c3cc(Cl)c(O)c(Cl)c3)o2)cc1` [compound 4, probe 4] returned a Kd of 2 nM.
